Assay [1] deals with HepG2 cells. Description: Oxidative stress (ROS) measurement by flow cytometry, CellROX Deep Red. The following applies: HepG2, 24 h at total IC50. The assay is classed as cell-based, human. The procedure:
To determine the effect of the compounds on HepG2 cells, we analyzed oxidative status after 24 h of treatment as the pathological level of ROS affects the proper functioning of proteins, lipids, and nucleic acids. The compounds were added to the growth medium at a concentration that corresponds to the total IC50 value. After incubation, the cells were stained with CellROX Deep Red Reagent, which is an oxidative stress indicator. This is a non-fluorescent dye that emits red fluorescent signal upon oxidation by ROS. […] We observed an increase in fluorescence intensity of approximately 22–32% as compared to that of control cells (Figure 5 and Figure S298, ESI).
HepG2 cells (3.85 × 10^5) were seeded onto 6-well plates, cultured with EMEM media at 37 °C and 5% CO2 saturation, and incubated until 60–70% confluence. Subsequently, the cells were treated for 24 h with the tested compounds at a concentration corresponding to their total IC50 values. […] The level of intracellular ROS generation was analyzed by staining with CellROX™ Deep Red Reagent (ex/em: ~644/665 nm) according to the manufacturer’s protocol (Thermo Fisher Scientific, Waltham, MA, USA), in which fluorescence was triggered in the presence of ROS. […] The cells were analyzed after incubation with the dye, with excitation at […] by the FACSCalibur flow cytometer (Becton Dickinson), and data were analyzed by FlowJo software. […]
In general terms: A flow cytometer gives signals particle by particle.

In assay [2] the test system is calf thymus DNA (ct-DNA). Kind of assay: UV–vis absorption titration with ct-DNA, binding constant Kb. The following applies: 10 µM compound, ct-DNA 1.25–15 µM. The source says:
The interaction of 1,8-naphthalimides bearing carborane clusters with ct-DNA was also studied by UV–vis absorption titration to better understand the mode of interaction and binding strength. For compounds interacting with DNA by intercalation, bathochromic and hypochromic effects are observed in the absorption spectra. The spectral changes observed in the electronic absorption of 6–11, 16–19, 36–43, and 54–61 in the absence and presence of ct-DNA are illustrated in Figures S271–S296 (ESI). Progressive addition of ct-DNA at the concentration of 1.25–15 µM to a fixed amount of modified naphthalic anhydride or naphthalimide (10 µM concentration) decreased absorbance for almost all the tested modified conjugates, except conjugates 14, 15, and 22–27 for which changes in absorbance were not observed. […] Hypochromicity (10–56%) was also observed for all conjugates, with the highest value for compound 40.
To compare the DNA-binding strength of the tested conjugates, we calculated the binding constant Kb, as described in the Materials and Methods section. […] For conjugates 14, 15, and 22–27, the Kb value could not be determined due to the lack of noticeable changes in the UV spectra.
The measurements were performed by adding aliquots of DMSO stock solution of the tested compounds to the buffer solution (pH 7.4, 20 mM, 50 mM NaCl, Tris-HCl buffer, DMSO content of the final solutions = 0.40–0.61%) to the final concentration of 10 µM. The tested compounds were incubated 5 min, with increasing concentrations ranging from 0 to 15 µM of ct-DNA at 37 °C, then the UV–vis absorption spectra, between 310 and 500 nm (310–550 nm for compounds 36–43 and 54–61), were recorded using a GBC Cintra10 UV–vis spectrometer (Dandenong, Australia) equipped with a GBC Thermocell Peltier Power Supply (Dandenong, Australia) using a 1 cm path length cell. The binding constant was calculated according to the following equation [53]: A0/A−A0=εG/εH−G−εG +εG/εH−G−εG ×1/Kb[DNA] where Kb is the binding constant, A0 and A are the absorbance of the free tested compound, and the apparent one, εG and εH−G are their coefficient, respectively, and [DNA] is the concentration of [DNA] in the base pair. The slope to intercept ratio of the plot between A0/A − A0 versus 1/[DNA] yielded the binding constant.

On to “N-[2-N-Pyrrolidinyl)ethyl]-4-[(6-(2-(1,7-dicarba-closo-dodecaborane-1-yl)-ethylamino)hexyl)amino]-1,8-naphthalimide [Compound 61]”, for which the “increase in CellROX fluorescence intensity (ROS) as compared to control” value in assay [1] is reported as 65%.

Regarding “N-[2-N-Pyrrolidinyl)ethyl]-4-[(6-(2-(1,2-dicarba-closo-dodecaborane-1-yl)-ethylamino)hexyl)amino]-1,8-naphthalimide [Compound 60]”, in assay [1], the “increase in CellROX fluorescence intensity (ROS) as compared to control” value turned out to be 64%.

Regarding “N-[2-(Dimethylamino)ethyl]-4-[(6-(2-(1,7-dicarba-closo-dodecaborane-1-yl)-ethylamino)hexyl)amino]-1,8-naphthalimide [Compound 59]”, the bathochromic shift in assay [2] was 1–2 nm.

Consider “N-[2-(Dimethylamino)ethyl]-4-[(2-(2-(1,7-dicarba-closo-dodecaborane-1-yl)-ethylamino)ethyl)amino]-1,8-naphthalimide [Compound 55]”, for which, in assay [2], the bathochromic shift is given as 1–2 nm.
